# Assay results: ChEMBL document CHEMBL5696441 (Nat Chem Biol, 2011)
# What was measured:
# [1] = tested on: Tyrosine-protein kinase ABL1 (Homo sapiens), P00519 [M351T]; test: Inhibition of ABL1 M351T mutant (unknown origin) assessed as remaining activity at 1 uM by Kinome scan method relative to control
# [2] = molecular target: Mitogen-activated protein kinase kinase kinase 6 (Homo sapiens) (UniProt O95382); test: Inhibition of ASK2 (unknown origin) assessed as remaining activity at 1 uM by Kinome scan method relative to control
# [3] = tested on: Serine/threonine-protein kinase B-raf (Homo sapiens), P15056 [V600E]; test: Inhibition of BRAF V600E mutant (unknown origin) assessed as remaining activity at 1 uM by Kinome scan method relative to control
# [4] = molecular target: Dual specificity protein kinase CLK2 (Homo sapiens) (UniProt P49760); test: Inhibition of CLK2 (unknown origin) assessed as remaining activity at 1 uM by Kinome scan method relative to control
# [5] = tested on: Mast/stem cell growth factor receptor Kit (Homo sapiens), P10721 [L576P]; test: Inhibition of KIT L576P mutant (unknown origin) assessed as remaining activity at 1 uM by Kinome scan method relative to control
# [6] = molecular target: Myosin-IIIa (Homo sapiens) (UniProt Q8NEV4); test: Inhibition of MYO3A (unknown origin) assessed as remaining activity at 1 uM by Kinome scan method relative to control
# [7] = molecular target: Mitogen-activated protein kinase kinase kinase 7 (Homo sapiens) (UniProt O43318); test: Inhibition of TAK1 (unknown origin) assessed as remaining activity at 1 uM by Kinome scan method relative to control
# [8] = molecular target: Serine/threonine-protein kinase tousled-like 1 (Homo sapiens) (UniProt Q9UKI8); test: Inhibition of TLK1 (unknown origin) assessed as remaining activity at 1 uM by Kinome scan method relative to control
# [9] = molecular target: Activated CDC42 kinase 1 (Homo sapiens) (UniProt Q07912); test: Inhibition of TNK2 (unknown origin) assessed as remaining activity at 1 uM by Kinome scan method relative to control
# [10] = molecular target: Dual specificity protein kinase TTK (Homo sapiens) (UniProt P33981); test: Inhibition of TTK (unknown origin) assessed as remaining activity at 1 uM by Kinome scan method relative to control
# [11] = molecular target: Serine/threonine-protein kinase ULK3 (Homo sapiens) (UniProt Q6PHR2); test: Inhibition of ULK3 (unknown origin) assessed as remaining activity at 1 uM by Kinome scan method relative to control
# [12] = molecular target: Dual specificity protein kinase CLK3 (Homo sapiens) (UniProt P49761); test: Inhibition of human CLK3 assessed as residual activity at 1 uM using RB-S6P as substrate in presence of 33P-ATP by ProQinase assay relative to control
# [13] = molecular target: Tyrosine-protein kinase Fes/Fps (Homo sapiens) (UniProt P07332); test: Inhibition of human FES assessed as residual activity at 1 uM using polyEY as substrate in presence of 33P-ATP by ProQinase assay relative to control
# [14] = molecular target: G protein-coupled receptor kinase 3 (Homo sapiens) (UniProt P35626); test: Inhibition of human GRK3 assessed as residual activity at 1 uM using casein as substrate in presence of 33P-ATP by ProQinase assay relative to control
# [15] = molecular target: Mast/stem cell growth factor receptor Kit (Homo sapiens) (UniProt P10721); test: Inhibition of human KIT assessed as residual activity at 1 uM using polyEY as substrate in presence of 33P-ATP by ProQinase assay relative to control
# [16] = molecular target: Dual specificity mitogen-activated protein kinase kinase 2 (Homo sapiens) (UniProt P36507); test: Inhibition of human MEK2 assessed as residual activity at 1 uM using RBER-IRStide as substrate in presence of 33P-ATP by ProQinase assay relative to control
# [17] = molecular target: Hepatocyte growth factor receptor (Homo sapiens) (UniProt P08581); test: Inhibition of human MET assessed as residual activity at 1 uM using poly(Ala,Glu,Lys,Tyr)6:2:5:1 as substrate in presence of 33P-ATP by ProQinase assay relative to control
# [18] = molecular target: Serine/threonine-protein kinase PLK1 (Homo sapiens) (UniProt P53350); test: Inhibition of human PLK1 assessed as residual activity at 1 uM using RBER-CHKtide as substrate in presence of 33P-ATP by ProQinase assay relative to control
# [19] = molecular target: Ribosomal protein S6 kinase alpha-1 (Homo sapiens) (UniProt Q15418); test: Inhibition of human RPS6KA1 assessed as residual activity at 1 uM using RBER-CHKtide as substrate in presence of 33P-ATP by ProQinase assay relative to control
# [20] = molecular target: Tyrosine-protein kinase SYK (Homo sapiens) (UniProt P43405); test: Inhibition of human SYK (1 to 635 residues) assessed as residual activity at 1 uM using polyEY as substrate in presence of 33P-ATP by ProQinase assay relative to control
# [21] = molecular target: T1, Tyrosine-protein kinase Tec (Homo sapiens) (UniProt P42680); test: Inhibition of human TEC assessed as residual activity at 1 uM using polyEY as substrate in presence of 33P-ATP by ProQinase assay relative to control
# T1 sequence (whole entry): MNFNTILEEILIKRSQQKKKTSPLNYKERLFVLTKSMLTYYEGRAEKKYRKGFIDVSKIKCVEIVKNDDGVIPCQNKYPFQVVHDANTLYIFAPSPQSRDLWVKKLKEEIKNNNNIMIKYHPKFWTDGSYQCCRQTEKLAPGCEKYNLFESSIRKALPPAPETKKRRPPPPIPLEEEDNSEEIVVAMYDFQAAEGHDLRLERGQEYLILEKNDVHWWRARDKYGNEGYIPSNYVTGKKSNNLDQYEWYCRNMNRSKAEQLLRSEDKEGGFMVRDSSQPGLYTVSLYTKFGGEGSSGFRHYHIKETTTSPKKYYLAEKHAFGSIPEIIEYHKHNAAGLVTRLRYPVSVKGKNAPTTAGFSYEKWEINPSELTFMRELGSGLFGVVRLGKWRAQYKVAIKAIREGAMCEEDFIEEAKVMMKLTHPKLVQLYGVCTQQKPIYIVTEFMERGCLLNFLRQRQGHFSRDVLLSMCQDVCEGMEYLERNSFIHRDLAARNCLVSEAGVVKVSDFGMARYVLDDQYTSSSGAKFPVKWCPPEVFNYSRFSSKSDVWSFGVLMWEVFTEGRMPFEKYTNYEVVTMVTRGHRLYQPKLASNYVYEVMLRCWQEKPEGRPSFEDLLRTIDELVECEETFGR
# [22] = molecular target: High affinity nerve growth factor receptor (Homo sapiens) (UniProt P04629); test: Inhibition of human TRKA assessed as residual activity at 1 uM using PolyEY as substrate in presence of 33P-ATP by ProQinase assay relative to control
# [23] = Anti-inflammatory activity against human derived high respond PBMC cells assessed as inhibition in stimulated IL-13 cytokine release incubated for 2 hrs in the presence of LPS/SEB/aCD28 by Luminex based sandwich immunoassay; type: functional, cell-based
# Myosin-IIIa (Homo sapiens), sequence (Q8NEV4 whole entry): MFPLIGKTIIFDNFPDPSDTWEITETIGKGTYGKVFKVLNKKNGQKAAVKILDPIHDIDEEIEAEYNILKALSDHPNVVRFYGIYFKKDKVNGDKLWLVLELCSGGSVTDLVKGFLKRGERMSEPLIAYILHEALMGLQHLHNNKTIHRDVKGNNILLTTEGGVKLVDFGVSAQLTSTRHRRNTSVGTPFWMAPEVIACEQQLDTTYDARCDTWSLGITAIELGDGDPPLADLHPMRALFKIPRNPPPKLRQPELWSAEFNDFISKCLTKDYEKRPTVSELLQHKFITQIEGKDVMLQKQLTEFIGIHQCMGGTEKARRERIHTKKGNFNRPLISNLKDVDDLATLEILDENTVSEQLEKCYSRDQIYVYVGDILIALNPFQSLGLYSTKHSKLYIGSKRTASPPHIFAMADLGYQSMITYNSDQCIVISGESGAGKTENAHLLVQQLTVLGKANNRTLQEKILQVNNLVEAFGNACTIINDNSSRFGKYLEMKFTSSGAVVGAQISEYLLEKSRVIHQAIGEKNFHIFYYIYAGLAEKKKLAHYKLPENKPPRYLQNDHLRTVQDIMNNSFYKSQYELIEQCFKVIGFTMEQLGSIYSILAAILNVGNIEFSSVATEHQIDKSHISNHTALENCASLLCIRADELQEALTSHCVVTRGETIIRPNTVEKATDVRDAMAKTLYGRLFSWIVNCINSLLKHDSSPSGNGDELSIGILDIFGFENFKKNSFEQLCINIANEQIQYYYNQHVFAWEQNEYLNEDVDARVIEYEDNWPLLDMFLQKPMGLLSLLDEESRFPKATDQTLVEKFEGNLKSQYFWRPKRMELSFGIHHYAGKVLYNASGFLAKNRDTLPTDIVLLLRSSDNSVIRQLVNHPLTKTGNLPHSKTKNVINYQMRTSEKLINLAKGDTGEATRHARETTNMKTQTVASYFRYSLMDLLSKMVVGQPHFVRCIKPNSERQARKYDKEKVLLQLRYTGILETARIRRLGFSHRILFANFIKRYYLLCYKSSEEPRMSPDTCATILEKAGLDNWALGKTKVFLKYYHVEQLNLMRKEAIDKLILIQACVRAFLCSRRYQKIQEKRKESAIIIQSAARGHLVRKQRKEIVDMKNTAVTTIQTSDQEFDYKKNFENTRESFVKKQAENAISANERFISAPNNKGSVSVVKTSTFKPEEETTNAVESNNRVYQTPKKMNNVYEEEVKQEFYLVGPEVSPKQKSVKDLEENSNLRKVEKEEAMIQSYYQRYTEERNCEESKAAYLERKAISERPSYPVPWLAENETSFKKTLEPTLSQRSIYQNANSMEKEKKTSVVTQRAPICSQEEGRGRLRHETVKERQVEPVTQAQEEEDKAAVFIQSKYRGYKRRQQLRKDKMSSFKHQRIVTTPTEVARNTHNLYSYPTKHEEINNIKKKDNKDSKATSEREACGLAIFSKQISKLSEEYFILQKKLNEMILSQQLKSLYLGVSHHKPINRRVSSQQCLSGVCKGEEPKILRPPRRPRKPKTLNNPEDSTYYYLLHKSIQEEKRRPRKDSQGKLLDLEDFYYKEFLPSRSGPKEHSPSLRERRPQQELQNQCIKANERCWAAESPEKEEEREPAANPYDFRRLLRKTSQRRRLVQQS
# Serine/threonine-protein kinase ULK3 (Homo sapiens), sequence (Q6PHR2 whole entry): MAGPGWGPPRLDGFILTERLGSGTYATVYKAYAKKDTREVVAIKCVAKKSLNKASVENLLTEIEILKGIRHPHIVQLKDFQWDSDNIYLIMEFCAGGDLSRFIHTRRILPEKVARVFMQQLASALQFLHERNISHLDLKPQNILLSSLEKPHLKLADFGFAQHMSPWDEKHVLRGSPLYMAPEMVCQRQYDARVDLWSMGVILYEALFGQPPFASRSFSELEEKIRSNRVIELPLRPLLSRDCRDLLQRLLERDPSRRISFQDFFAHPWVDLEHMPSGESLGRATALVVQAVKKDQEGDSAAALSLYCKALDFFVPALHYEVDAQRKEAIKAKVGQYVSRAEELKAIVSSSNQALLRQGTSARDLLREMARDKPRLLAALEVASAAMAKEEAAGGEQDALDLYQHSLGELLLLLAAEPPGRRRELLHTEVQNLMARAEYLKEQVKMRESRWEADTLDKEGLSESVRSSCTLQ
# Mast/stem cell growth factor receptor Kit (Homo sapiens), P10721 [L576P], sequence (P10721 whole entry L576P): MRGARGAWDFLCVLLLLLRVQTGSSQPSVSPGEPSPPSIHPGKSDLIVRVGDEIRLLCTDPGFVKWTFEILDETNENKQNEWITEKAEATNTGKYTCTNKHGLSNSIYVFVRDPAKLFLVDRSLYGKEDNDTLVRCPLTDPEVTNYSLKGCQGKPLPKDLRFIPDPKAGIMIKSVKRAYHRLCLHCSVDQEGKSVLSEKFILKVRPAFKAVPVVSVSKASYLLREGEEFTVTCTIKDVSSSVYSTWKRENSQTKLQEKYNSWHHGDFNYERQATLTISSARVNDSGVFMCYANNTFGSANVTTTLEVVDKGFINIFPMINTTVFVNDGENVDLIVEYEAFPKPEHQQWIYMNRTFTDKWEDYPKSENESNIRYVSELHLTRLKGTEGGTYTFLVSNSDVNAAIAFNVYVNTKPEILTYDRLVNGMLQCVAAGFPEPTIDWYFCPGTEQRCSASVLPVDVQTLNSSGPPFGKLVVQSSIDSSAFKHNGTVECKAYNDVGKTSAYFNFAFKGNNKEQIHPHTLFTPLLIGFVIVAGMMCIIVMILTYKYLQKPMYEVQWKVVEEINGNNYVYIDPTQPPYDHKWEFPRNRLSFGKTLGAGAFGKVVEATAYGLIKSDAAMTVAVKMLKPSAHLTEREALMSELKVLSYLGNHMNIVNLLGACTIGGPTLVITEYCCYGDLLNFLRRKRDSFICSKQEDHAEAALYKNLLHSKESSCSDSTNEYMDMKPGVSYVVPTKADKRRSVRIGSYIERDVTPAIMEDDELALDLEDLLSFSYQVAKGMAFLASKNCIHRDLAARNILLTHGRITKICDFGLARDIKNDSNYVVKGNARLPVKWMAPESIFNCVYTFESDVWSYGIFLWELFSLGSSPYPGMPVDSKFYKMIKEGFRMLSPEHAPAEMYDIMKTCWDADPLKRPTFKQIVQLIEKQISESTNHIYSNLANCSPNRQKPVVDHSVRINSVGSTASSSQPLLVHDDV
# Hepatocyte growth factor receptor (Homo sapiens), sequence (P08581 whole entry): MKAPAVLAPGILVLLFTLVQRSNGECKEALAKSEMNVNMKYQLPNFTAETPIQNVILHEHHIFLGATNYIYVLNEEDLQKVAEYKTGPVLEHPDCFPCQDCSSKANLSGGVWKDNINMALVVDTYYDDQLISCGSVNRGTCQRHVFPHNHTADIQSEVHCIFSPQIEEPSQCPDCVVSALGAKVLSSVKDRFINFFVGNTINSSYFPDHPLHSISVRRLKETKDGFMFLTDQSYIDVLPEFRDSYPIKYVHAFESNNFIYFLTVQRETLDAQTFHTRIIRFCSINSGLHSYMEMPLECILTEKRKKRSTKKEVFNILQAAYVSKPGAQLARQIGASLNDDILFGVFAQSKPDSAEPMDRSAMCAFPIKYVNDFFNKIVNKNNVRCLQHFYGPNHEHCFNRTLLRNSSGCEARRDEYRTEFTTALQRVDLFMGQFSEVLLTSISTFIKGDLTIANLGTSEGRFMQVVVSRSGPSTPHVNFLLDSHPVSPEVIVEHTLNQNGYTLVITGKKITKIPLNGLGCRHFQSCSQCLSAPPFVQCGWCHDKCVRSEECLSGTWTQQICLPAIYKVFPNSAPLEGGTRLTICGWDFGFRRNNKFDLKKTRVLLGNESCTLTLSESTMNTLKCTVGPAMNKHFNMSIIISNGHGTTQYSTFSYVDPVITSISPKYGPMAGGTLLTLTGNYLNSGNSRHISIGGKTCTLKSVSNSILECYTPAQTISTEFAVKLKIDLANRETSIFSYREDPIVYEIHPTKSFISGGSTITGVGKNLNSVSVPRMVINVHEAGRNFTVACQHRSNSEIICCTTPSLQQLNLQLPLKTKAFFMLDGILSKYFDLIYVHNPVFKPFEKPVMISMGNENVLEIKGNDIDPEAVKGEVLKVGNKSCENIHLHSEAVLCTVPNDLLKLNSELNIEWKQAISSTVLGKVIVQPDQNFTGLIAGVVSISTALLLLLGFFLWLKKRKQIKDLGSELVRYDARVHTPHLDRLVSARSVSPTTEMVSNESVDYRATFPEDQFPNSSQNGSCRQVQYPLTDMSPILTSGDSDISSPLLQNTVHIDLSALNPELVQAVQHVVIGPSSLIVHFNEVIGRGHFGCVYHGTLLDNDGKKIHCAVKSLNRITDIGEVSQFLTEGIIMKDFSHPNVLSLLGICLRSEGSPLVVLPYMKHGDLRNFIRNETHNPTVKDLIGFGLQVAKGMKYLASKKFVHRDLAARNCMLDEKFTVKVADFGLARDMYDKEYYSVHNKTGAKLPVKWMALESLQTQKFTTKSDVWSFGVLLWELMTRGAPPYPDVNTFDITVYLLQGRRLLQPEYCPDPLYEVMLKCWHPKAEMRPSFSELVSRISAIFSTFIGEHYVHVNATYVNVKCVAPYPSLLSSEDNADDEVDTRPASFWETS
# Dual specificity mitogen-activated protein kinase kinase 2 (Homo sapiens), sequence (P36507 whole entry): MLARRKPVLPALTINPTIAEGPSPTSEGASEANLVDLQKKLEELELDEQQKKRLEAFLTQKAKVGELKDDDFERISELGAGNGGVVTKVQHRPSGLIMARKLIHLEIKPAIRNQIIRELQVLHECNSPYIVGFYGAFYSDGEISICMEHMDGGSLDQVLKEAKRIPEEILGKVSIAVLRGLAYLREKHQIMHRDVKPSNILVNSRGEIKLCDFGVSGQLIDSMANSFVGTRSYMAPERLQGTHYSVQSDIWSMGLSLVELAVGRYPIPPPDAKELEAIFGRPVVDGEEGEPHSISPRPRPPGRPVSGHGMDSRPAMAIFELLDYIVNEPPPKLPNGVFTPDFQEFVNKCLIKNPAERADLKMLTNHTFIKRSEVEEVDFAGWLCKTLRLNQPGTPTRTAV
# Mast/stem cell growth factor receptor Kit (Homo sapiens), sequence (P10721 whole entry): as the sequence (P10721 whole entry L576P) above, with P576L counted along it
smiles,measurement,setting,value
O=C1c2ccc(Nc3ccc(F)cc3F)cc2CCc2ccc(OC[C@H](O)CO)cc21 [Skepinone-L],Activity,[1],100%
same,Activity,[2],100%
same,Activity,[3],100%
same,Activity,[4],90%
same,Activity,[5],98%
same,Activity,[6],89%
same,Activity,[7],100%
same,Activity,[8],100%
same,Activity,[9],100%
same,Activity,[10],100%
same,Activity,[11],100%
same,Activity,[12],88%
same,Activity,[13],121%
same,Activity,[14],95%
same,Activity,[15],111%
same,Activity,[16],99%
same,Activity,[17],108%
same,Activity,[18],97%
same,Activity,[19],89%
same,Activity,[20],98%
same,Activity,[21],115%
same,Activity,[22],111%
same,IC50,[23],1940 nM
